Data on one compound can be found in paper PMC4336642 (Journal of neuroimmune pharmacology : the official journal …, 2015).

The test system of one data set is A172 cells. Kind of data set: MTT cytotoxicity assay, astrocytes model. The class given is cell-based. The settings on record: Homo sapiens, A 172, 24 h, read-out: IC50, Astrocytes. (In general: Tetrazolium dyes change colour on reduction, which living cells bring about.)
A further data set relates to SH-SY5Y cells. Kind of data set: MTT cytotoxicity assay, neurons model. The class given is cell-based. The settings on record: Homo sapiens, 24 h, read-out: IC50, Neurons.
A further data set deals with BV-2 cells. Kind of data set: MTT cytotoxicity assay, microglia model. Format: cell-based, murine. The settings on record: Mus musculus, BV-2, 24 h, read-out: IC50, Microglia.
The test system of another data set is bEnd.3 cells. Kind of data set: MTT cytotoxicity assay, BBB model. The class given is cell-based, murine. Conditions: Mus musculus, BEND3, 24 h, read-out: IC50, BBB.

For orientation: IC50 means the concentration that gives 50% inhibition.

Converted amounts (≈) assume the structure as drawn.

For `Cc1cn([C@H]2C[C@H](N=[N+]=[N-])[C@@H](CO)O2)c(=O)[nH]c1=O` [Z, 3’-azido-3’-deoxythymidine], the half-maximal inhibitory concentration (IC50) is over 1000 µg/mL with A172 cells, over 1000 µg/mL in the data set with SH-SY5Y cells, 800 µg/mL (≈ 2.99 mM) in the data set with BV-2 cells and over 1000 µg/mL in the data set on bEnd.3 cells. Further, the “reduction in the mtDNA/nuDNA ratio / mitochondrial toxicity” value in the data set on HepG2 cells was “two-fold reduction”.
